Measurements: ChEMBL document CHEMBL1126331, “Nor-mefloquine: Stereospecific synthesis and biological properties” (1992)

Experiments:
Mus musculus = test: Compound was evaluated in vivo against Plasmodium berghei in mice (Mus musculus) after oral administration; type: functional
Rattus norvegicus = test: Percent decrease in blood pressure in conscious hypertensive rats, at a dose of 100 mg; type: functional

Compound | ED50 (Mus musculus) [mg/kg] | Decrease (Rattus norvegicus) [%]
Cl.O[C@H](c1cc(C(F)(F)F)nc2c(C(F)(F)F)cccc12)[C@@H]1CCCN1 (single isomer, unassigned) | 1.8 | 15
Cl.O[C@@H](c1cc(C(F)(F)F)nc2c(C(F)(F)F)cccc12)[C@H]1CCCCN1 [MEFLOQUINE HYDROCHLORIDE] | 1.8 | –
